Measured values reported in patent publication US20090299036A1, “AGENT FOR PREVENTING ARTERIOSCLEROSIS, AGENT FOR SUPPRESSING VASCULAR INTIMAL THICKENING AND AGENT FOR IMPROVING VASCULAR ENDOTHELIAL FUNCTION” (Calpis Co, Ltd, priority 2006, published 2009).

Key:
[1] = system: thoracic aorta of Wistar rats; assay: Endothelium-dependent vasodilator response of aorta ring from L-NAME-treated rats (Magnus apparatus); format: in vivo, rat
Procedure: Wistar rats (7 weeks of age, male) as the test animals were acclimatized for one week. A nitric oxide synthesis inhibitor, NG-nitro-L-arginine methyl ester hydrochloride (L-NAME, manufactured by SIGMA-ALDRICH CORP.) was dissolved in drinking water at the concentration of 1 g/L, and similarly, L-NAME and Val-Pro-Pro synthesized above at 1 g/L and 0.3 g/L, respectively, and L-NAME and Ile-Pro-Pro synthesized above at 1 g/L and 0.3 g/L, respectively. The rats were allowed free access to the prepared drinking water for one week. As a control, only the drinking water without L-NAME dissolved therein was given to a non-treatment group.
Then, the rats were subjected to fatal exsanguination under diethyl ether anesthesia. The thoracic aorta was taken out, cut into 2 mm long, and made into an aorta ring. The ring was set in a Magnus apparatus (product name “micro tissue organ bath MTOB-1Z”, manufactured by LABO SUPPORT CO., LTD.) filled with 5 ml of Tyrode's solution (composition: 158.3 mM of NaCl, 4.0 mM of KCl, 2.0 mM of CaCl2, […] of MaCl2, 0.42 mM of NaH2PO4, 10.0 mM of NaHCO3, and 5.6 mM of glucose; pH 7.4, 37±0.5° C.), and allowed to equilibrate with the resting tension of 2.0 g. The aorta ring was then allowed to constrict with 1 μM of phenylephrine. […] The degree of vasodilation by the response was determined as a ratio to the constriction with 1 μM of phenylephrine. […]

[2] = system: arteriosclerosis; conditions: Non-patent Publication 5; cited from earlier work

SMILES: CCOC(=O)[C@H](CCc1ccccc1)N[C@@H](C)C(=O)N1CCC[C@H]1C(=O)O [enalapril]
- Degree of vasodilation ([1]; drinking water for one week: L-NAME 1 g/L, peptide 0.3 g/L, enalapril 0.5 mg/L, 10 μM acetylcholine, ratio to constriction with 1 μM phenylephrine, group average): 31.6%
- degree of vasodilation compared to the group given only L-NAME ([1]; given together with L-NAME): no significant difference
- arteriosclerosis inhibitory effect [2]: does not result in an arteriosclerosis inhibitory effect
